Where “and” joins values, the source holds several entries; their conditions need not be identical. Equal entries are not always repeated. Where two headings read alike, the source gives them in different places.
Assays:
[1] = tested on: E. coli; test: Log growth in Müller-Hinton media with or without NaCl; format: cell-based, Escherichia coli
Experimental: Standard Müller-Hinton media was compared to Müller-Hinton media supplemented with NaCl to the same level as the saline-based media of Example 4. […] After inoculation of each MSM-containing media type with 1.9×10^7 cfu/mL of E. coli, the cultures were incubated at 35° C. for seven days. Aliquots of each culture were taken at 24 and 48 hours, as well as 7 days.

[2] = tested on: Escherichia coli; test: USP <51> AET in cosmetic cream/composition; format: cell-based; conditions: for AET microorganism count: 48 hrs-28 days; for Log Reduction from Initial Microorganism Inoculum: 14, 28 Days
[3] = tested on: Salmonella typhimurium; test: USP AET, MSM in TSB; format: cell-based; design: key: Colonies too numerous to count (TNTC); conditions: 48 hrs
[4] = tested on: Bifidobacterium bifidum; test: Probiotic growth in media supplemented with MSM; format: cell-based; design: unit not given here
Description: Plates were then counted. […] Data are presented in Cfu/mL.

[5] = tested on: Rhinovirus type 14 (ATCC #VR-284); format: cell-based
[6] = tested on: Lactobacillus rhamnosus; test: Growth in MRS broth fortified with MSM; format: cell-based; conditions: for Growth: 0.04% MSM in MRS broth, 0-72 hours
Experimental: Each organism (Lactobacillus rhamnosus, Lactobacillus acidophilus, and Bifidobacterium bifidum) was grown in MRS bacterial growth medium (broth) and plated on MRS agar at different time intervals. Results are expressed in colony forming units per milliliter (cfu/mL).
The 0.1% and 0.04% test concentrations were prepared by making a 1:10 dilution of the 1% and 0.4% test solutions. Once each set of test media was plated for sterility, they were inoculated at a level of 100 μl of inoculum per 100 g or mLs of test broth (1:1000 inoculum dilutions) with each respective microorganism. All bacterial organisms were incubated at 35° C.+/−2° C. for the duration of the study.
All samples were plated on MRS agar at time 0, 12, 36, 48, 60 and 72 hours (+/−45 minutes). All preparations and plating were conducted at room temperature. All plating events were incubated at 35° C.+/−2° C. for at least 2 days or 3 days for Bifidobacterium. Test samples were plated in triplicate at each test date and the averages are reported.

[7] = tested on: Bacillus coagulans; test: Growth in simulated gastric acid supplemented with MSM; format: cell-based
[8] = tested on: Streptococcus Pyogenes (Lancefield group A, #10096); test: Bacterial viability by bioluminescent ATP assay

Substance: Methylsulfonylmethane [MSM]
- log reduction from the initial inoculum ([1]; 24 hours, all media, MSM greater than 13%): approximately 1 log
- reduced E. coli growth by ([1]; 48 hours, MSM greater than 13%): 1-2 logs
- log reduction in E. coli ([1]; 7 days, FMHS, 12% MSM): 3 log
- AET microorganism count ([2]; 10% MSM in Preservative Free Cosmetic Composition #1, 48 hours after inoculation): 5.4 × 10^4
- AET microorganism count ([2]; 10% MSM in Preservative Free Cosmetic Composition #1, 7 days after inoculation): <10
- AET microorganism count ([2]; 10% MSM in cosmetic cream without preservative): <10
- Log Reduction from Initial Microorganism Inoculum ([2]; 10% MSM in preservative-free jojoba cream): 5.7 log
- Log Reduction from Initial Microorganism Inoculum ([2]; 10% MSM, Composition #1): 5.8 log
- Log Reduction from Initial Microorganism Inoculum ([2]; 10% MSM, Composition #2): 5.8 log
- AET microorganism count ([3]; 1:100 dilution of MSM): TNTC
- AET microorganism count ([3]; 1:1000 dilution of MSM): TNTC
- Growth of Bifidobacteruim bifidum ([4]; 0.125% MSM, 0 h): 1.64
- Growth of Bifidobacteruim bifidum ([4]; 0.125% MSM, 8 h): 1.73
- Growth of Bifidobacteruim bifidum ([4]; 0.125% MSM, 16 h): 6.55
- Growth of Bifidobacteruim bifidum ([4]; 0.125% MSM, 24 h): 2.70
- Growth of Bifidobacteruim bifidum ([4]; 0.125% MSM, 32 h): 3.37
- Growth of Bifidobacteruim bifidum ([4]; 0.125% MSM, 40 h): 4.19
- Growth of Bifidobacteruim bifidum ([4]; 0.125% MSM, 48 h): 6.41
- Growth of Bifidobacteruim bifidum ([4]; 0.125% MSM, 56 h): 9.97
- Growth of Bifidobacteruim bifidum ([4]; 0.125% MSM, 64 h): 11.34
- Growth of Bifidobacteruim bifidum ([4]; 0.125% MSM, 72 h): 10.00
- Growth of Bifidobacteruim bifidum ([4]; 0.2% MSM, 0 h): 1.82
- Growth of Bifidobacteruim bifidum ([4]; 0.2% MSM, 8 h): 2.08
- Growth of Bifidobacteruim bifidum ([4]; 0.2% MSM, 16 h): 5.22
- Growth of Bifidobacteruim bifidum ([4]; 0.2% MSM, 24 h): 6.15
- Growth of Bifidobacteruim bifidum ([4]; 0.2% MSM, 32 h): 5.03
- Growth of Bifidobacteruim bifidum ([4]; 0.2% MSM, 40 h): 8.14
- Growth of Bifidobacteruim bifidum ([4]; 0.2% MSM, 48 h): 8.55
- Growth of Bifidobacteruim bifidum ([4]; 0.2% MSM, 56 h): 9.00
- Growth of Bifidobacteruim bifidum ([4]; 0.2% MSM, 64 h): 10.19
- Growth of Bifidobacteruim bifidum ([4]; 0.2% MSM, 72 h): 9.10
- Growth of Bifidobacteruim bifidum ([4]; 0.50% MSM, 0 h): 1.85
- Growth of Bifidobacteruim bifidum ([4]; 0.50% MSM, 8 h): 1.99
- Growth of Bifidobacteruim bifidum ([4]; 0.50% MSM, 16 h): 6.53
- Growth of Bifidobacteruim bifidum ([4]; 0.50% MSM, 24 h): 3.14
- Growth of Bifidobacteruim bifidum ([4]; 0.50% MSM, 32 h): 3.52
- Growth of Bifidobacteruim bifidum ([4]; 0.50% MSM, 40 h): 4.62
- Growth of Bifidobacteruim bifidum ([4]; 0.50% MSM, 48 h): 4.51
- Growth of Bifidobacteruim bifidum ([4]; 0.50% MSM, 56 h): 6.05
- Growth of Bifidobacteruim bifidum ([4]; 0.50% MSM, 64 h): 9.55
- Growth of Bifidobacteruim bifidum ([4]; 0.50% MSM, 72 h): 7.52
- Growth of Bifidobacteruim bifidum ([4]; 1% MSM, 0 h): 1.48
- Growth of Bifidobacteruim bifidum ([4]; 1% MSM, 8 h): 1.70
- Growth of Bifidobacteruim bifidum ([4]; 1% MSM, 16 h): 6.81
- Growth of Bifidobacteruim bifidum ([4]; 1% MSM, 24 h): 2.75
- Growth of Bifidobacteruim bifidum ([4]; 1% MSM, 32 h): 3.37
- Growth of Bifidobacteruim bifidum ([4]; 1% MSM, 40 h): 3.48
- Growth of Bifidobacteruim bifidum ([4]; 1% MSM, 48 h): 3.90
- Growth of Bifidobacteruim bifidum ([4]; 1% MSM, 56 h): 8.32
- Growth of Bifidobacteruim bifidum ([4]; 1% MSM, 64 h): 8.02
- Growth of Bifidobacteruim bifidum ([4]; 1% MSM, 72 h): 9.52
- Growth of Bifidobacteruim bifidum ([4]; 5% MSM, 0 h): 1.00
- Growth of Bifidobacteruim bifidum ([4]; 5% MSM, 8 h): 2.29
- Growth of Bifidobacteruim bifidum ([4]; 5% MSM, 16 h): 6.71
- Growth of Bifidobacteruim bifidum ([4]; 5% MSM, 24 h): 5.72
- Growth of Bifidobacteruim bifidum ([4]; 5% MSM, 32 h): 10.32
- Growth of Bifidobacteruim bifidum ([4]; 5% MSM, 40 h): 12.02
- Growth of Bifidobacteruim bifidum ([4]; 5% MSM, 48 h): 10.54
- Growth of Bifidobacteruim bifidum ([4]; 5% MSM, 56 h): 10.92
- Growth of Bifidobacteruim bifidum ([4]; 5% MSM, 64 h): 12.04
- Growth of Bifidobacteruim bifidum ([4]; 5% MSM, 72 h): 12.43
- Growth of Bifidobacteruim bifidum ([4]; […] MSM, 0 h): 1.64
- Growth of Bifidobacteruim bifidum ([4]; […] MSM, 8 h): 1.60
- Growth of Bifidobacteruim bifidum ([4]; […] MSM, 16 h): 6.21
- Growth of Bifidobacteruim bifidum ([4]; […] MSM, 24 h): 2.52
- Growth of Bifidobacteruim bifidum ([4]; […] MSM, 32 h): 3.37
- Growth of Bifidobacteruim bifidum ([4]; […] MSM, 40 h): 3.52
- Growth of Bifidobacteruim bifidum ([4]; […] MSM, 48 h): 3.95
- Growth of Bifidobacteruim bifidum ([4]; […] MSM, 56 h): 8.35
- Growth of Bifidobacteruim bifidum ([4]; […] MSM, 64 h): 8.30
- Growth of Bifidobacteruim bifidum ([4]; […] MSM, 72 h): 10.12
- Average Log Stimulation [5]: 0.053log10 and 0.11log10
- Average Percent Stimulation [5]: 11.49% and 22.38%
- Average TCID50 [5]: 4.42log10 and 5.00log10 and 5.58log10 and 5.42log10 and 5.67log10 and 5.25log10
- Log Stimulation [5]: 0.08log10 and 0.00log10 and 0.17log10
- TCID50 [5]: 4.25log10 and 4.50log10 and 4.75log10 and 5.00log10 and 5.25log10 and 5.50log10 and 6.00log10 and 5.75log10
- average log10 reduction ([5]; 1% MSM): 0.14 log10
- average percent reduction ([5]; 1% MSM): 27.56%
- average log10 reduction ([5]; 2% MSM): 0.42 log10
- average percent reduction ([5]; 2% MSM): 61.98%
- average log10 reduction ([5]; 3% MSM): 0.11 log10
- average percent reduction ([5]; 3% MSM): 22.38%
- average log10 reduction ([5]; 4% MSM): 0.28 log10
- average percent reduction ([5]; 4% MSM): 47.52%
- HillSlope, best-fit value ([5]; log(inhibitor) vs. normalized response, variable slope): 0.6280
- LogIC50, best-fit value ([5]; log(inhibitor) vs. normalized response, variable slope, dose in mM): 1.582
- Growth ([6]; 0 hours after inoculation): 1.7 × 10^6 cfu/mL
- Growth ([6]; 12 hours after inoculation): 2.1 × 10^7 cfu/mL
- Growth ([6]; 24 hours after inoculation): 1.5 × 10^9 cfu/mL
- Growth ([6]; 36 hours after inoculation): 1.8 × 10^9 cfu/mL
- Growth ([6]; 48 hours after inoculation): 2.1 × 10^9 cfu/mL
- Growth ([6]; 60 hours after inoculation): 2.6 × 10^9 cfu/mL
- higher than 0% control ([6]; first 12 hours, 0.2% MSM): 41%
- higher than 0% control ([6]; first 12 hours, 1% MSM): 47%
- recovered more than the 0% control ([6]; first 12 hours, all MSM samples): at least 12%
- Log Growth of Bacillus coagulans average ([7]; 5% MSM, 0 hours): 0.26 logs
- Log Growth of Bacillus coagulans average ([7]; 5% MSM, 3 hours): 0 logs
- Log Growth of Bacillus coagulans in duplicate ([7]; 5% MSM, 3 hours): 0 logs
- Log Growth of Bacillus coagulans average ([7]; 5% MSM, 6 hours): 0 logs
- Log Growth of Bacillus coagulans in duplicate ([7]; 5% MSM, 6 hours): 0 logs
- Log Growth of Bacillus coagulans average ([7]; 5% MSM, 9 hours): 0 logs
- Log Growth of Bacillus coagulans in duplicate ([7]; 5% MSM, 9 hours): 0 logs
- Log Growth of Bacillus coagulans average ([7]; 5% MSM, 12 hours): 0 logs
- Log Growth of Bacillus coagulans in duplicate ([7]; 5% MSM, 12 hours): 0 logs
- Log Growth of Bacillus coagulans average ([7]; 5% MSM, 15 hours): 0.26 logs
- Log Growth of Bacillus coagulans average ([7]; 5% MSM, 24 hours): 0 logs
- Log Growth of Bacillus coagulans in duplicate ([7]; 5% MSM, 24 hours): 0 logs
- Log Growth of Bacillus coagulans average ([7]; 5% MSM, 48 hours): 0 logs
- Log Growth of Bacillus coagulans in duplicate ([7]; 5% MSM, 48 hours): 0 logs
- Log Growth of Bacillus coagulans in duplicate ([7]; […] MSM, 0 hours): 0 logs
- Log Growth of Bacillus coagulans in duplicate ([7]; […] MSM, 3 hours): 0 logs
- Log Growth of Bacillus coagulans average ([7]; […] MSM, 9 hours): 0 logs
- Log Growth of Bacillus coagulans in duplicate ([7]; […] MSM, 9 hours): 0 logs
- Log Growth of Bacillus coagulans in duplicate ([7]; […] MSM, 12 hours): 0 logs
- Log Growth of Bacillus coagulans average ([7]; […] MSM, 15 hours): 0 logs
- Log Growth of Bacillus coagulans in duplicate ([7]; […] MSM, 15 hours): 0 logs
- Log Growth of Bacillus coagulans average ([7]; […] MSM, 24 hours): 0 logs
- Log Growth of Bacillus coagulans in duplicate ([7]; […] MSM, 24 hours): 0 logs
- Log Growth of Bacillus coagulans average ([7]; […] MSM, 48 hours): 0 logs
- Log Growth of Bacillus coagulans in duplicate ([7]; […] MSM, 48 hours): 0 logs
- initial recovery, average ([7]; […] and 5.0% MSM): 0.26 logs
- IC50 [8]: 10.26%
